Where a name gives a salt, the structure may show the parent alone.
System: behaviors of compound-treated mice
Experiment: Neuropharmacological Assay (SmartCube)
Type: in vivo
Details: for minimal effective dose: Mus musculus, ip, 0.25 h, dose having 50% or more total activity in SmartCube, i.p., read-out: MED (minimal effective dose); for AD: ADHD (probability that activity matches class) / AG: analgesic (probability that activity matches class) / AX: anxiolytic (probability that activity matches class) / CE: cognitive enhancer (probability that activity matches class) / DP: anti-depressant (probability that activity matches class) / MS: mood stabilizer (probability that activity matches class) / PS: anti-psychotic (probability that activity matches class) / SD: sedative hypnotic (probability that activity matches class) / UN: uncharacterized CNS activity (probability that activity matches class): i.p. 15 min before behavioral test, most efficacious dose(s) of 3 doses
Method in brief: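 Mice dosed i.p. 15 min before testing, with compound in N-methyl-2-pyrrolidone/PEG/propylene glycol, were video-recorded and algorithmically compared with reference-drug behavioral signatures. This gave class-match probabilities (antidepressant, anxiolytic, etc.) at the most efficacious of 3 doses. MED was defined as the dose with ≥50% total activity, usually tested across 0.3–30 mpk.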

SMILES	minimal effective dose [mg/kg]	AD: ADHD (probability that activity matches class)	AG: analgesic (probability that activity matches class)	AX: anxiolytic (probability that activity matches class)	CE: cognitive enhancer (probability that activity matches class)	DP: anti-depressant (probability that activity matches class)	MS: mood stabilizer (probability that activity matches class)	PS: anti-psychotic (probability that activity matches class)	SD: sedative hypnotic (probability that activity matches class)	UN: uncharacterized CNS activity (probability that activity matches class)
NCC1OCCc2c(-c3cnccn3)cccc21 (stereo not shown) [Compound 63, (5-(Pyrazin-2-yl)isochroman-1-yl)methanamine hydrochloride salt]	3 to 10	++ (5% ≤ ++ <25%)	+ (LOQ ≤ + <5%)	++ (5% ≤ ++ <25%)	+ (LOQ ≤ + <5%)	++++ (50% ≤ ++++)	+ (LOQ ≤ + <5%)	+ (LOQ ≤ + <5%)	+ (LOQ ≤ + <5%)	+ (LOQ ≤ + <5%)
Cc1cc(-c2cccc3c2CCO[C@H]3CN)cc(C)n1 [Compound 126, dihydrochloride]	10 to 30	+ (LOQ ≤ + <5%)	+ (LOQ ≤ + <5%)	+ (LOQ ≤ + <5%)	+ (LOQ ≤ + <5%)	+ (LOQ ≤ + <5%)	+ (LOQ ≤ + <5%)	+ (LOQ ≤ + <5%)	+ (LOQ ≤ + <5%)	+ (LOQ ≤ + <5%)
CNC[C@H]1OCCc2c(-c3ccnc(C)c3)cccc21 (single isomer, unassigned) [Compound 121, hydrochloride salt]	≤ 3	++ (5% ≤ ++ <25%)	+ (LOQ ≤ + <5%)	++ (5% ≤ ++ <25%)	+ (LOQ ≤ + <5%)	++++ (50% ≤ ++++)	+ (LOQ ≤ + <5%)	+ (LOQ ≤ + <5%)	++ (5% ≤ ++ <25%)	+ (LOQ ≤ + <5%)
CNC[C@@H]1OCCCc2c(-c3ccncc3)cccc21 (single isomer, unassigned) [Compound 148]	10 to 30	+ (LOQ ≤ + <5%)	+ (LOQ ≤ + <5%)	++ (5% ≤ ++ <25%)	+ (LOQ ≤ + <5%)	+ (LOQ ≤ + <5%)	+ (LOQ ≤ + <5%)	+ (LOQ ≤ + <5%)	+ (LOQ ≤ + <5%)	+ (LOQ ≤ + <5%)
NC[C@H]1OCCc2cccc(-c3cccnc3)c21 (single isomer, unassigned) [Compound 10, hydrochloride]	10 to 30	+ (LOQ ≤ + <5%)	+++ (25% ≤ +++ <50%)	+ (LOQ ≤ + <5%)	+ (LOQ ≤ + <5%)	++ (5% ≤ ++ <25%)	+ (LOQ ≤ + <5%)	+ (LOQ ≤ + <5%)	+ (LOQ ≤ + <5%)	+ (LOQ ≤ + <5%)
NC[C@@H]1OCCc2c(-c3ccno3)cccc21 (single isomer, unassigned) [Compound 92, hydrochloride salt]	≤ 3	++ (5% ≤ ++ <25%)	+ (LOQ ≤ + <5%)	++ (5% ≤ ++ <25%)	+ (LOQ ≤ + <5%)	++ (5% ≤ ++ <25%)	+ (LOQ ≤ + <5%)	+ (LOQ ≤ + <5%)	++ (5% ≤ ++ <25%)	+++ (25% ≤ +++ <50%)
CNC[C@H]1OCCc2c(-c3cc(C)nc(C)c3)cccc21 [Compound 125, (S)-1-(5-(2,6-dimethylpyridin-4-yl)isochroman-1-yl)-N-methylmethanamine dihydrochloride]	≤ 3	+ (LOQ ≤ + <5%)	+ (LOQ ≤ + <5%)	+ (LOQ ≤ + <5%)	+ (LOQ ≤ + <5%)	++++ (50% ≤ ++++)	+ (LOQ ≤ + <5%)	+ (LOQ ≤ + <5%)	+ (LOQ ≤ + <5%)	++++ (50% ≤ ++++)
CNC[C@H]1OCCc2c(-c3ccncc3)cccc21 [Compound 18, (S)—N-Methyl(5-(pyridin-4-yl)isochroman-1-yl)methanamine dihydrochloride salt]	10 to 30	+ (LOQ ≤ + <5%)	+ (LOQ ≤ + <5%)	+ (LOQ ≤ + <5%)	+ (LOQ ≤ + <5%)	++++ (50% ≤ ++++)	+ (LOQ ≤ + <5%)	+ (LOQ ≤ + <5%)	+ (LOQ ≤ + <5%)	+ (LOQ ≤ + <5%)
CNC[C@@H]1OCCc2c(-c3ncc[nH]3)cccc21 [Compound 110, (R)-1-(5-(1H-Imidazol-2-yl)isochroman-1-yl)-N-methylmethanamine hydrochloride salt]	10 to 30	+ (LOQ ≤ + <5%)	+ (LOQ ≤ + <5%)	++ (5% ≤ ++ <25%)	+ (LOQ ≤ + <5%)	+ (LOQ ≤ + <5%)	+ (LOQ ≤ + <5%)	+ (LOQ ≤ + <5%)	+ (LOQ ≤ + <5%)	+ (LOQ ≤ + <5%)
CNC[C@@H]1OCCc2c(-c3ccccc3)cccc21 (single isomer, unassigned) [Compound 128, hydrochloride salt]	10 to 30	+ (LOQ ≤ + <5%)	+ (LOQ ≤ + <5%)	+ (LOQ ≤ + <5%)	+ (LOQ ≤ + <5%)	+ (LOQ ≤ + <5%)	+ (LOQ ≤ + <5%)	+ (LOQ ≤ + <5%)	+ (LOQ ≤ + <5%)	+ (LOQ ≤ + <5%)
CNCC1OCCc2c(-c3ccncn3)cccc21 (stereo not shown) [Compound 53, N-Methyl-1-(5-(pyrimidin-4-yl)isochroman-1-yl)methanamine hydrochloride salt]	3 to 10	++ (5% ≤ ++ <25%)	+ (LOQ ≤ + <5%)	++ (5% ≤ ++ <25%)	+ (LOQ ≤ + <5%)	++++ (50% ≤ ++++)	+ (LOQ ≤ + <5%)	+ (LOQ ≤ + <5%)	+ (LOQ ≤ + <5%)	+ (LOQ ≤ + <5%)
NC[C@@H]1OCc2c(-c3ccncc3)cccc21 (single isomer, unassigned) [Compound 37, hydrochloride salt]	10 to 30	++ (5% ≤ ++ <25%)	++ (5% ≤ ++ <25%)	++ (5% ≤ ++ <25%)	+ (LOQ ≤ + <5%)	+++ (25% ≤ +++ <50%)	+ (LOQ ≤ + <5%)	+ (LOQ ≤ + <5%)	+ (LOQ ≤ + <5%)	+ (LOQ ≤ + <5%)
CNC[C@@H]1OCCc2cccc(-c3cccnc3)c21 (single isomer, unassigned) [Compound 1, bis-hydrochloride]	10 to 30	+ (LOQ ≤ + <5%)	+ (LOQ ≤ + <5%)	++ (5% ≤ ++ <25%)	++ (5% ≤ ++ <25%)	++ (5% ≤ ++ <25%)	+ (LOQ ≤ + <5%)	++ (5% ≤ ++ <25%)	+ (LOQ ≤ + <5%)	++ (5% ≤ ++ <25%)

Reference: patent publication US10780074B2, “Compounds and uses thereof” (Sunovion Pharmaceuticals Inc., priority 2017, dated 2020)
